Columns and labels:
Test in all cases: Competitive isoTOP-ABPP in situ (fragment-treated cells)
Assay type in all cases: cell-based
Conditions in all cases: 200 μM, insitu
[1] = biological target: cysteines in MDA-MB-231 and Ramos cells (Homo sapiens, UniProt P38606)
[2] = biological target: T1, cysteines in MDA-MB-231 and Ramos cells (Homo sapiens, UniProt Q13428)
T1 sequence (Q13428 1-1488): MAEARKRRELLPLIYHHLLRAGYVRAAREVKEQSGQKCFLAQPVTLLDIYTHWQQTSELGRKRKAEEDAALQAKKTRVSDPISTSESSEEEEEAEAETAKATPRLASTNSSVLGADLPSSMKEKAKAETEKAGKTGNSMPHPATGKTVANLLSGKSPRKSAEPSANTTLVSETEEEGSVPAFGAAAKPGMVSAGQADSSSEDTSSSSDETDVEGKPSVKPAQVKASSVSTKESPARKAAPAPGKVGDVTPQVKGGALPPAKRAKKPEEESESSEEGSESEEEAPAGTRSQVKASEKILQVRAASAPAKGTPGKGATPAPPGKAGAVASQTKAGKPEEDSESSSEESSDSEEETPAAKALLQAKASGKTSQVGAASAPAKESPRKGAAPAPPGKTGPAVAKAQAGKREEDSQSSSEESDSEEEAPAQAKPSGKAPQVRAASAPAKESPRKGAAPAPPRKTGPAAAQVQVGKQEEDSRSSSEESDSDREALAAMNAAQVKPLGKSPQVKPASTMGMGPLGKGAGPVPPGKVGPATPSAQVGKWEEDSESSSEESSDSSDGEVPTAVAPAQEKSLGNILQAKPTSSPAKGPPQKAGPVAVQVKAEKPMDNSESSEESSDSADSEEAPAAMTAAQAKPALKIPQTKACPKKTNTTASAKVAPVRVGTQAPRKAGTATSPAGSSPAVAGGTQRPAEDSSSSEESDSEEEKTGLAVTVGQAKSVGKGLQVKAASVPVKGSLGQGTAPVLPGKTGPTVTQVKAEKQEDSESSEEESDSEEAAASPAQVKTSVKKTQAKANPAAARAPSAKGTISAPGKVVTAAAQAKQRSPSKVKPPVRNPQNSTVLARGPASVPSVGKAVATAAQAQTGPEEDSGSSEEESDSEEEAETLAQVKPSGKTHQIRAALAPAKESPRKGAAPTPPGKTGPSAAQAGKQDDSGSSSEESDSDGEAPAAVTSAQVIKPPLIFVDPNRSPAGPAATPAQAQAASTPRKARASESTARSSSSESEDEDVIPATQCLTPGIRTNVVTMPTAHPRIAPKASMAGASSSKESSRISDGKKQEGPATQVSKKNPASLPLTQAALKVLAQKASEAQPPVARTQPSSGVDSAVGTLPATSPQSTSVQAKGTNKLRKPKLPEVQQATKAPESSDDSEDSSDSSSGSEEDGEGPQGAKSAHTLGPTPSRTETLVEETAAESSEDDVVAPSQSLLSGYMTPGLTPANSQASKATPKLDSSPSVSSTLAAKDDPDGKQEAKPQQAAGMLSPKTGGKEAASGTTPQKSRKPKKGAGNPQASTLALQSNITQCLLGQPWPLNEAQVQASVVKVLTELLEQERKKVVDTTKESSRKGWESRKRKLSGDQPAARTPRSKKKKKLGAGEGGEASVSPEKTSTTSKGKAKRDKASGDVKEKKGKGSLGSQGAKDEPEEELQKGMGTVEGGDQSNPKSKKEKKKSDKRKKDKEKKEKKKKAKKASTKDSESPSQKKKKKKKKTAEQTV

[3] = biological target: cysteines in MDA-MB-231 and Ramos cells (Homo sapiens, UniProt Q15365)
Chain of cysteines in MDA-MB-231 and Ramos cells (Homo sapiens, UniProt Q15365) (Q15365 whole entry): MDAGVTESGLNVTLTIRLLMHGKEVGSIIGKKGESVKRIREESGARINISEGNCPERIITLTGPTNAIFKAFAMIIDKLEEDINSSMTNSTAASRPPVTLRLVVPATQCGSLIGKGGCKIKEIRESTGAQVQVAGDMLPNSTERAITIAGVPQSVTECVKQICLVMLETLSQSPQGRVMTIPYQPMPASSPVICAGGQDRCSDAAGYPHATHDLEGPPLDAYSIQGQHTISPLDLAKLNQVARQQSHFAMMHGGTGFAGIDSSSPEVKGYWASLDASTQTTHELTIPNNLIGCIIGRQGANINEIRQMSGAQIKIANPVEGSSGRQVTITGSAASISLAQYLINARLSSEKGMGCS

[4] = biological target: cysteines in MDA-MB-231 and Ramos cells (Homo sapiens, UniProt Q8TAQ2)
Chain of cysteines in MDA-MB-231 and Ramos cells (Homo sapiens, UniProt Q8TAQ2) (Q8TAQ2 whole entry): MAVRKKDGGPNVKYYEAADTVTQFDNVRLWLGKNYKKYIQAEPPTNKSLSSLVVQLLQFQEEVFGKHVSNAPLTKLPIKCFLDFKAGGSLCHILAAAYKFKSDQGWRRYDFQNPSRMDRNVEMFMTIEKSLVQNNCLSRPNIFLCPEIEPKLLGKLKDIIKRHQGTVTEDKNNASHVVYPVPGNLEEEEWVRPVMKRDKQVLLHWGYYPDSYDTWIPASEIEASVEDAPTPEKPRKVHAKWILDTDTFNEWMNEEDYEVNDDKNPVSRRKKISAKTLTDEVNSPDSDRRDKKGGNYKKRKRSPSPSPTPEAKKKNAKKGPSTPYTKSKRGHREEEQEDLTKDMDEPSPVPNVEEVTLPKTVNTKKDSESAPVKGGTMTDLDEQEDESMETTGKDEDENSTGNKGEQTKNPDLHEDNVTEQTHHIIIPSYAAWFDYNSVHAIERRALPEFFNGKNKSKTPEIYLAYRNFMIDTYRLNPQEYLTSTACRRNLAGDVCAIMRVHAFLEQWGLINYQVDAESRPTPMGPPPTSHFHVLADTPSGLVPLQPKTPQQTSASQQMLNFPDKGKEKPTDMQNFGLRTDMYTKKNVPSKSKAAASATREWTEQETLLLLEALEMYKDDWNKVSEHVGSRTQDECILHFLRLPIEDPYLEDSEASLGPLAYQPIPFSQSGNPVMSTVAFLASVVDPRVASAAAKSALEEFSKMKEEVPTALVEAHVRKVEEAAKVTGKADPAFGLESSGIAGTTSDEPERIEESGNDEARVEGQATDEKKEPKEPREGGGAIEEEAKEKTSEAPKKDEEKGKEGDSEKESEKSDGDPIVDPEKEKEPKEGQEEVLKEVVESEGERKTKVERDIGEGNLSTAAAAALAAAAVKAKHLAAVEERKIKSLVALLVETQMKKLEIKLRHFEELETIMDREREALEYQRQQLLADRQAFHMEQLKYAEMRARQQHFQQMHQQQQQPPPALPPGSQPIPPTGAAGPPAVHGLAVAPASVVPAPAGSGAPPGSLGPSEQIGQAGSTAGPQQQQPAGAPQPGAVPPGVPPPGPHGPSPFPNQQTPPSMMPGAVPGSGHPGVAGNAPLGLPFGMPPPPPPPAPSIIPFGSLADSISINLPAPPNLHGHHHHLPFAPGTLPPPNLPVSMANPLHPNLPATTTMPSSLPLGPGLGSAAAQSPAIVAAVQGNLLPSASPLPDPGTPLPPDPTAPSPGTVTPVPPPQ

[5] = biological target: T2, cysteines in MDA-MB-231 and Ramos cells (Homo sapiens, UniProt Q96T76)
T2 sequence (Q96T76 1-1030): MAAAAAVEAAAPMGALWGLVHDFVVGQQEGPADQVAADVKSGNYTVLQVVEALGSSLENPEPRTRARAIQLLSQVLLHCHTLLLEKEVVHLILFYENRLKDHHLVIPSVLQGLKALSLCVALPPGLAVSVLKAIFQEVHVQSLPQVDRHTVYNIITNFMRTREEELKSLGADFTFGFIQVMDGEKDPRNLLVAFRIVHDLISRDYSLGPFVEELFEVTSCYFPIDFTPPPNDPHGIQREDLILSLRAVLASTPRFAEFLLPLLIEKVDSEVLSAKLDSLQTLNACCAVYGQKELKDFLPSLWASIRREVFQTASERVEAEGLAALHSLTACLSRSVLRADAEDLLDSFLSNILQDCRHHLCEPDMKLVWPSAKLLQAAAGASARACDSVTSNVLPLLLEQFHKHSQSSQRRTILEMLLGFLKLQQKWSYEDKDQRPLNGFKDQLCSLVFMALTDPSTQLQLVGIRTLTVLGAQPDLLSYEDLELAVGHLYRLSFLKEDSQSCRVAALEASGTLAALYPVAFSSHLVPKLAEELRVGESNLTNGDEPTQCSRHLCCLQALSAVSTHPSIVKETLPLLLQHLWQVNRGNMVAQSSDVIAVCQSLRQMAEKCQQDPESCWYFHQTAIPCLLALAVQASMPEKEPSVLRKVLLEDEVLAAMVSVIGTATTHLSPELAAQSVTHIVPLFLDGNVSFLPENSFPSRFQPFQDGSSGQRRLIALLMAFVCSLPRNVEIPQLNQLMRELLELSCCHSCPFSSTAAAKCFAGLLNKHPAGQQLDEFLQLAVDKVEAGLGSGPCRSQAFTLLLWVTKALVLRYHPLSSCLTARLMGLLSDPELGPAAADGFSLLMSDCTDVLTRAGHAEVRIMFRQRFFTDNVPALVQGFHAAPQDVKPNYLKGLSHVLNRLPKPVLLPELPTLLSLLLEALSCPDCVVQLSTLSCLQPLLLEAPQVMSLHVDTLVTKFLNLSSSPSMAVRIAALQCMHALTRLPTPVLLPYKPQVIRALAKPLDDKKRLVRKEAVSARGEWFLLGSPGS

[6] = biological target: T3, cysteines in MDA-MB-231 and Ramos cells (Homo sapiens, UniProt Q9Y3D0)
T3 sequence (Q9Y3D0 1-163): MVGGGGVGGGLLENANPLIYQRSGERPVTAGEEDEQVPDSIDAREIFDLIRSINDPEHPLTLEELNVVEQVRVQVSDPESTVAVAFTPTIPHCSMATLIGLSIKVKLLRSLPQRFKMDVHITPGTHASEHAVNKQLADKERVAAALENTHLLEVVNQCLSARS

Chain of cysteines in MDA-MB-231 and Ramos cells (Homo sapiens, UniProt P38606) (P38606 whole entry): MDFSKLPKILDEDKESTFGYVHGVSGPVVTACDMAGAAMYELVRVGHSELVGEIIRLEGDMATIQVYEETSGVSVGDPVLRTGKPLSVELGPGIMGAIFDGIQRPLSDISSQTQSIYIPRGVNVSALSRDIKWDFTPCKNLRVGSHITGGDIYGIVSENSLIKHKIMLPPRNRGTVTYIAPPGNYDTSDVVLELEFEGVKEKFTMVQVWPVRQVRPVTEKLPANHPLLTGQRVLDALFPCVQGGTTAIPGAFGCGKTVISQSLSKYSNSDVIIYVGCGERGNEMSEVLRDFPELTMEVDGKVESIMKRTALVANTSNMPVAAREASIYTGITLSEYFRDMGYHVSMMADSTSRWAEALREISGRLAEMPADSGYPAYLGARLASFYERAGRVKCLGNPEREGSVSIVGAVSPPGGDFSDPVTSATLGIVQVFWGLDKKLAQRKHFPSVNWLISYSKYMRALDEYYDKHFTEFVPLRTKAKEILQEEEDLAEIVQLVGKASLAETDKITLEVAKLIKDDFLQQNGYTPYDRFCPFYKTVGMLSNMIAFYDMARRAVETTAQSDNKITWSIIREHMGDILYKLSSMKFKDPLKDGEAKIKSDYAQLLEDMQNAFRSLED

Row | Structure (SMILES) | isoTOP-ABPP ratio P38606_C138 [1]; 231 | isoTOP-ABPP ratio Q13428_C38 [2]; 231 | isoTOP-ABPP ratio Q15365_C194 [3]; 231 | isoTOP-ABPP ratio Q15365_C194 ([3]; ramos) | isoTOP-ABPP ratio Q8TAQ2_C145 [4]; 231 | isoTOP-ABPP ratio Q96T76_C848 [5]; 231 | isoTOP-ABPP ratio Q96T76_C848 ([5]; ramos) | isoTOP-ABPP ratio Q9Y3D0_C93 ([6]; ramos) | isoTOP-ABPP ratio Q9Y3D0_C93 [6]; 231 | isoTOP-ABPP ratio Q13428_C1298 [2]; 231 | isoTOP-ABPP ratio Q13428_C38 ([2]; ramos) | isoTOP-ABPP ratio Q8TAQ2_C145 ([4]; ramos) | isoTOP-ABPP ratio P38606_C138 ([1]; ramos) | isoTOP-ABPP ratio Q13428_C1298 ([2]; ramos) | isoTOP-ABPP ratio Q96T76_C819 [5]; 231 | isoTOP-ABPP ratio Q96T76_C819 ([5]; ramos)
1 | O=C(CCl)NCCc1c[nH]c2ccccc12 [compound 13] | 20.0 | 1.6 | 0.9 | 1.4 | 1.1 | 0.6 | 1.5 | 1.4 | – | – | – | – | – | – | – | –
2 | O=C(CCl)NC12CC3CC(CC(C3)C1)C2 [compound 21] | 20.0 | 1.5 | 1.1 | – | 1.6 | 0.7 | – | – | 0.5 | – | – | – | – | – | – | –
3 | COc1ccccc1OCCNC(=O)CCl [compound 28] | – | 1.0 | – | – | 0.9 | 0.8 | – | – | 0.8 | 0.9 | – | – | – | – | – | –
4 | O=C(CCl)N1CCN(CC(=O)N2CCOCC2)CC1 [compound 29] | – | – | – | 1.0 | – | – | 1.0 | 1.0 | – | – | 1.5 | 2.7 | – | – | – | –
5 | C=CC(=O)N(Cc1cccnc1)c1cc(C(F)(F)F)cc(C(F)(F)F)c1 [compound 31] | – | – | 0.7 | 1.6 | 0.8 | 20.0 | – | – | – | – | – | 1.1 | 1.7 | 2.2 | 20.0 | 20.0
6 | CC1CCc2ccccc2N1C(=O)CCl (stereo not drawn) [compound 45] | – | 2.8 | 1.5 | – | 2.9 | 20.0 | – | – | 20.0 | 4.7 | – | – | – | – | 20.0 | –
7 | O=C(CCl)Nc1cccc2ncccc12 [compound 51] | 10.6 | 1.1 | 0.6 | – | 1.2 | – | – | – | 20.0 | – | – | – | – | – | – | –
